Experimental data from patent publication US8633245B2, “PAI-1 inhibitor” (Institute of Medicinal Molecular Design, Inc., priority 2008, dated 2014).

Tests used:
Assay type in all cases: biochemical
recombinant rat PAI-1 = molecular target: T1, recombinant rat PAI-1 (Rattus norvegicus, UniProt P20961); test: Test Example 3: rat PAI-1 inhibitory activity (as Test Example 2 with rat PAI-1); conditions: for inhibition at 10 µM: read-out: Inhibition Rate of PAI-1 Activity (%); for Inhibition Rate of PAI-1 Activity (%) / IC50: rat PAI-1; for IC50: calculated from the inhibition rates
T1 construct: purchased Molecular Innovations, Inc
T1 sequence (P20961 24-402): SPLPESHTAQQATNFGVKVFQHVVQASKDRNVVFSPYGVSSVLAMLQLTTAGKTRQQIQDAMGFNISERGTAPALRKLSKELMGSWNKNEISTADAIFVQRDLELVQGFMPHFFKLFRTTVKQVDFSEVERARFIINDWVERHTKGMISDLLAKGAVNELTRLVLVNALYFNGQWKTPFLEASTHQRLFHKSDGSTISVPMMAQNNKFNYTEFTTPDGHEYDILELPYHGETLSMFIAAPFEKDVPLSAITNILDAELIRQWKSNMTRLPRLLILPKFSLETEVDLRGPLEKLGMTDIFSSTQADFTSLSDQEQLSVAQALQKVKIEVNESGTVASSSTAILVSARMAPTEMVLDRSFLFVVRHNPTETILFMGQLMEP
Description: To this solution, 6 μl of 80 nM recombinant human PAI-1 (Molecular Innovations, Inc.) solution prepared with Tris buffer was added, and the plate was incubated for 5 minutes at room temperature. Furthermore, 30 μl of 800 IU/ml two-chain tPA (Activity Standard; American diagnostica, inc.) prepared with Tris buffer was added, and the mixed solution was incubated for 15 minutes at room temperature. Then, 30 μl of 400 μM fluorogenic substrate (Pyr-Gly-Arg-MCA; Peptide Institute, Inc.) for tPA prepared with Tris buffer was added and reacted for 30 minutes at room temperature.

recombinant human PAI-1 [1] = molecular target: T2, recombinant human PAI-1 (Homo sapiens, UniProt P05121); test: Test Example 1: human PAI-1 inhibitory activity (tPA fluorogenic substrate, pH 7.5 Tris buffer); conditions: Tris buffer
T2 construct: purchased Molecular Innovations, Inc
Description: 50 mM Tris, 150 mM NaCl, 10 μg/ml BSA, 0.01% Tween80 (SIGMA-ALDRICH Corporation)

recombinant human PAI-1 [2] = molecular target: T2, recombinant human PAI-1; test: Test Example 2: human PAI-1 inhibitory activity (tPA fluorogenic substrate, pH 7.4 HEPES buffer); conditions: for Inhibition Rate of PAI-1 Activity (%): HEPES buffer; for IC50: human PAI-1, calculated from the inhibition rates; for inhibition at 3 µM: read-out: Inhibition Rate of PAI-1 Activity (%)
Description: 0.1 M HEPES, 0.1 M NaCl. 1 mM EDTA. 0.1% Polyethylene glycol 8,000 (Hampton Research Corporation),
2 mM Dimethyldecylphoshine oxide [Apo-10] (Fluka Corporation)

T2 sequence (P05121 24-402): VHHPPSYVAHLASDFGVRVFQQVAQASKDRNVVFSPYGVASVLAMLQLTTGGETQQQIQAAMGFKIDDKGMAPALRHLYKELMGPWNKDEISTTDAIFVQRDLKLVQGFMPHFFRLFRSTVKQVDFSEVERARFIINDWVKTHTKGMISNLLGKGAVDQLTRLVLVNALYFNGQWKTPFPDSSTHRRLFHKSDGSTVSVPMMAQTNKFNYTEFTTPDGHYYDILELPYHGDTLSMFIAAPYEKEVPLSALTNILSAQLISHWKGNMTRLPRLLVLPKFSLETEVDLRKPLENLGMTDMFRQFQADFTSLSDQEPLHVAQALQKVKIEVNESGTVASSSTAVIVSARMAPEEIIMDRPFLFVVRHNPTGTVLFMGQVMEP

Compound	Inhibition Rate of PAI-1 Activity (%) (recombinant human PAI-1 [1]; Compound Concentration 5 μM)	Inhibition Rate of PAI-1 Activity (%) (recombinant human PAI-1 [1]; Compound Concentration 10 μM)	Inhibition Rate of PAI-1 Activity (%) (recombinant human PAI-1 [1]; Compound Concentration 25 μM)	IC50 (recombinant rat PAI-1) [µM]	IC50 (recombinant human PAI-1 [2]) [µM]	other results
CC(C)(C)c1ccc(Oc2ccc(-c3ccc(OC(F)(F)F)cc3)cc2CCC(=O)O)cc1 [Compound 13]	–	–	–	–	–	inhibition at 10 µM (recombinant rat PAI-1): > 99%
CC(C)(C)c1ccc(COc2cc(Oc3ccc(OC(F)(F)F)cc3)ccc2CCC(=O)O)cc1 [Compound 78]	–	–	–	2.33	1.38	–
CC(C)(C)c1ccc(COc2cccc(Oc3ccc(OC(F)(F)F)cc3)c2CCC(=O)O)cc1 [Compound 86]	–	–	–	5.21	1.54	–
CC(C)(C)c1ccc(Oc2cc(Oc3ccc(OC(F)(F)F)cc3)ccc2CCC(=O)O)cc1 [Compound 90]	–	–	–	2.65	1.35	–
CC(C)(C)c1ccc(COc2ccc(Oc3ccc(OC(F)(F)F)cc3)cc2CCC(=O)O)cc1 [Compound 96]	–	–	–	2.9	1.33	–
O=C(O)CCc1c(Oc2ccc(OC(F)(F)F)cc2)cccc1Oc1ccc(OC(F)(F)F)cc1 [Compound 98]	–	–	–	3.53	1.54	–
CC(C)(C)c1ccc(Oc2ccc(Oc3ccc(OC(F)(F)F)cc3)cc2CCC(=O)O)cc1 [Compound 100]	–	–	–	2.3	1.34	–
CC(C)(Oc1cc(-c2ccc(OC(F)(F)F)cc2)ccc1OCc1ccc(C(C)(C)C)cc1)C(=O)O [Compound 106]	–	–	–	1.71	1.15	inhibition at 10 µM (recombinant rat PAI-1): > 99%
CC(C)(C)c1ccc(Oc2cc(-c3ccc(OC(F)(F)F)cc3)ccc2OCC(=O)O)cc1 [Compound 112]	–	–	–	1.98	0.79	–
CC(C)(C)c1ccc(COc2c(OCC(=O)O)cccc2-c2ccc(OC(F)(F)F)cc2)cc1 [Compound 117]	–	–	–	2.48	1.04	inhibition at 3 µM (recombinant human PAI-1 [2]): > 99%
CC(C)(Oc1cccc(-c2ccc(OC(F)(F)F)cc2)c1OCc1ccc(C(C)(C)C)cc1)C(=O)O [Compound 118]	–	–	–	1.92	1.01	inhibition at 3 µM (recombinant human PAI-1 [2]): > 99%
CCCCC(c1ccc(C(C)(C)C)cc1)N(C(=O)C(=O)O)c1ccc(-c2ccc(OC(F)(F)F)cc2)cc1 (centres unmarked) [Compound 221]	–	–	–	1.27	0.93	inhibition at 3 µM (recombinant human PAI-1 [2]): > 99%
CC(C)(C)c1ccc(C(c2ccccc2)N(C(=O)C(=O)O)c2ccc(-c3ccc(OC(F)(F)F)cc3)cc2)cc1 (centres unmarked) [Compound 222]	–	–	–	1.34	1.06	inhibition at 3 µM (recombinant human PAI-1 [2]): > 99%
CCCCCOc1ccc(-c2ccc(OC(F)(F)F)cc2)cc1N(CCCCc1ccccc1)C(=O)C(=O)O [Compound 226]	–	–	–	1	0.51	inhibition at 10 µM (recombinant rat PAI-1): > 99%
CCCCOc1ccc(-c2ccc(OC(F)(F)F)cc2)cc1N(CCCCc1ccccc1)C(=O)C(=O)O [Compound 231]	–	–	–	1.57	1.19	inhibition at 10 µM (recombinant rat PAI-1): > 99%
CC(C)(C)c1ccc(-c2ccc(Oc3ccc(-c4ccc(OC(F)(F)F)cc4)cc3/C=C/C(=O)O)c(CCC(=O)O)c2)cc1 [Compound 540]	75	91	91	–	–	–
CC(C)(C)c1ccc(COc2cc(-c3ccc(OC(F)(F)F)cc3)cc(O)c2OCC(=O)O)cc1 [Compound 546]	61	–	–	–	–	Inhibition Rate of PAI-1 Activity (%) (recombinant human PAI-1 [1]; Compound Concentration 0.5 μM): 4%; Inhibition Rate of PAI-1 Activity (%) (recombinant human PAI-1 [1]; Compound Concentration 1 μM): 14%

Now from value to molecule, other results behind:

Inhibition Rate of PAI-1 Activity (%) (recombinant human PAI-1 [1]; Compound Concentration 5 μM)	Inhibition Rate of PAI-1 Activity (%) (recombinant human PAI-1 [1]; Compound Concentration 10 μM)	Inhibition Rate of PAI-1 Activity (%) (recombinant human PAI-1 [1]; Compound Concentration 25 μM)	IC50 (recombinant rat PAI-1) [µM]	IC50 (recombinant human PAI-1 [2]) [µM]	Compound	other results
29	70	>99	–	–	CCCCc1ccc(COc2ccc(-c3ccc(OC(F)(F)F)cc3)cc2CCC(=O)O)cc1 [Compound 30]	Inhibition Rate of PAI-1 Activity (%) (recombinant rat PAI-1; compound concentration 0.3 μM): 0%; Inhibition Rate of PAI-1 Activity (%) (recombinant rat PAI-1; compound concentration 1 μM): 5%; Inhibition Rate of PAI-1 Activity (%) (recombinant rat PAI-1; compound concentration 3 μM): 47%; Inhibition Rate of PAI-1 Activity (%) (recombinant rat PAI-1; compound concentration 10 μM): 89%; Inhibition Rate of PAI-1 Activity (%) (recombinant human PAI-1 [2]; Compound Concentration 0.1 μM): 0%; Inhibition Rate of PAI-1 Activity (%) (recombinant human PAI-1 [2]; Compound Concentration 0.3 μM): 5%; Inhibition Rate of PAI-1 Activity (%) (recombinant human PAI-1 [2]; Compound Concentration 1 μM): 25%; Inhibition Rate of PAI-1 Activity (%) (recombinant human PAI-1 [2]; Compound Concentration 3 μM): 92%
–	–	–	2.88	1.16	CC(C)(C)c1ccc(COc2cc(-c3ccc(OC(F)(F)F)cc3)ccc2CCC(=O)O)cc1 [Compound 76]	–
–	–	–	2.2	1.06	CC(C)(C)c1ccc(Oc2cc(-c3ccc(OC(F)(F)F)cc3)ccc2CCC(=O)O)cc1 [Compound 80]	–
–	–	–	3.24	1.31	CC(C)(C)c1ccc(COc2c(CCC(=O)O)cccc2-c2ccc(OC(F)(F)F)cc2)cc1 [Compound 88]	–
–	–	–	3.18	1.34	CC(C)(C)c1ccc(Oc2cccc(-c3ccc(OC(F)(F)F)cc3)c2CCC(=O)O)cc1 [Compound 94]	–
–	–	–	3.68	1.75	CC(C)(C)c1ccc(Oc2cccc(-c3ccc(OC(F)(F)F)cc3)c2OCC(=O)O)cc1 [Compound 113]	–
–	–	–	3.24	1.65	CC(C)(Oc1cc(-c2ccc(OC(F)(F)F)cc2)ccc1OCCCCc1ccccc1)C(=O)O [Compound 116]	–
–	–	–	1.95	1.11	CCCCOc1ccc(N(CCCCc2ccccc2)C(=O)C(=O)O)cc1-c1ccc(OC(F)(F)F)cc1 [Compound 227]	–
–	–	–	1.83	1.32	CCC(CC)Oc1ccc(N(CCCc2ccccc2)C(=O)C(=O)O)cc1-c1ccc(OC(F)(F)F)cc1 [Compound 230]	–
–	–	–	3.14	1.57	CCN(CC)c1ccc(N(CCCc2ccccc2)C(=O)C(=O)O)c(-c2ccc(OC(F)(F)F)cc2)c1 [Compound 238]	–
14	34	65	–	–	CC(C)(C)c1ccc(COc2ccc(-c3ccc(OC(F)(F)F)cc3)cc2NCC(=O)O)cc1 [Compound 539]	–
77	93	>99	–	–	CC(C)(C)c1ccc(-c2ccc(Oc3ccc(-c4ccc(OC(F)(F)F)cc4)cc3CCC(=O)O)c(CCC(=O)O)c2)cc1 [Compound 541]	–
67	–	–	–	–	CC(C)(C)c1ccc(Oc2ccc(-c3ccc(OC(F)(F)F)cc3)cc2CCC(=O)O)c(CCC(=O)O)c1 [Compound 542]	Inhibition Rate of PAI-1 Activity (%) (recombinant human PAI-1 [1]; Compound Concentration 0.5 μM): 0%; Inhibition Rate of PAI-1 Activity (%) (recombinant human PAI-1 [1]; Compound Concentration 1 μM): 14%
38	69	>99	–	–	CC(C)(C)c1ccc(CN(C(=O)CCC(=O)O)c2ccc(-c3ccc(OC(F)(F)F)cc3)cc2)cc1 [Compound 609]	–
49	83	96	–	–	CC(C)(C)c1ccc(CN(C(=O)C(=O)O)c2ccc(OCc3ccc(OC(F)(F)F)cc3)cc2)cc1 [Compound 616]	–
48	83	92	–	–	CC(C)(C)c1ccc(CN(C(=O)C(=O)O)c2cccc(OCc3ccc(OC(F)(F)F)cc3)c2)cc1 [Compound 619]	–
41	77	95	–	–	CC(C)(C)c1ccc(CN(C(=O)C(=O)O)c2ccccc2OCc2ccc(OC(F)(F)F)cc2)cc1 [Compound 620]	–
67	95	91	–	–	CC(C)(C)c1ccc(CN(C(=O)C(=O)O)c2ccc(Sc3ccc(OC(F)(F)F)cc3)cc2)cc1 [Compound 621]	–
44	72	88	–	–	CC(C)(C)c1ccc(CN(C(=O)C(=O)O)c2ccc(OCc3ccc(OC(F)(F)F)cc3)c(OCc3ccc(OC(F)(F)F)cc3)c2)cc1 [Compound 622]	–
22	41	87	–	–	CN(C(=O)C(=O)O)c1ccc(OCc2ccc(OC(F)(F)F)cc2)c(OCc2ccc(OC(F)(F)F)cc2)c1 [Compound 623]	–
59	92	91	–	–	Cc1ccc(N(Cc2ccc(C(C)(C)C)cc2)C(=O)C(=O)O)cc1OCc1ccc(OC(F)(F)F)cc1 [Compound 625]	–
42	77	97	–	–	CC(C)(C)c1ccc(CN(C(=O)C(=O)O)c2ccc(Nc3ccc(OC(F)(F)F)cc3)cc2)cc1 [Compound 626]	–
62	92	88	–	–	CC(C)(C)c1ccc(CN(C(=O)C(=O)O)c2ccc(Cl)c(OCc3ccc(OC(F)(F)F)cc3)c2)cc1 [Compound 629]	–
56	89	88	–	–	CC(C)(C)c1ccc(CN(C(=O)C(=O)O)c2ccc(SCc3ccc(OC(F)(F)F)cc3)cc2)cc1 [Compound 630]	–
58	86	86	–	–	CC(C)(C)c1ccc(CN(C(=O)C(=O)O)c2ccccc2Sc2ccc(OC(F)(F)F)cc2)cc1 [Compound 631]	–
